The values that follow come from US5795864A (priority 1995, dated 1998).

The target in this assay is OCT MVIIA (SNX-111) binding site (site 1) (Rattus norvegicus, UniProt Q02294). The assay can be described thus: biochemical.

Bridge positions count the residues as written; N and C are the ends. Square brackets hold non-standard residues; d marks the D form. Peptide text beside a SMILES is read from it. Hyp = O=C(O)[C@@H]1C[C@@H](O)CN1

Chain of OCT MVIIA (SNX-111) binding site (site 1) (Q02294 whole entry, looked up): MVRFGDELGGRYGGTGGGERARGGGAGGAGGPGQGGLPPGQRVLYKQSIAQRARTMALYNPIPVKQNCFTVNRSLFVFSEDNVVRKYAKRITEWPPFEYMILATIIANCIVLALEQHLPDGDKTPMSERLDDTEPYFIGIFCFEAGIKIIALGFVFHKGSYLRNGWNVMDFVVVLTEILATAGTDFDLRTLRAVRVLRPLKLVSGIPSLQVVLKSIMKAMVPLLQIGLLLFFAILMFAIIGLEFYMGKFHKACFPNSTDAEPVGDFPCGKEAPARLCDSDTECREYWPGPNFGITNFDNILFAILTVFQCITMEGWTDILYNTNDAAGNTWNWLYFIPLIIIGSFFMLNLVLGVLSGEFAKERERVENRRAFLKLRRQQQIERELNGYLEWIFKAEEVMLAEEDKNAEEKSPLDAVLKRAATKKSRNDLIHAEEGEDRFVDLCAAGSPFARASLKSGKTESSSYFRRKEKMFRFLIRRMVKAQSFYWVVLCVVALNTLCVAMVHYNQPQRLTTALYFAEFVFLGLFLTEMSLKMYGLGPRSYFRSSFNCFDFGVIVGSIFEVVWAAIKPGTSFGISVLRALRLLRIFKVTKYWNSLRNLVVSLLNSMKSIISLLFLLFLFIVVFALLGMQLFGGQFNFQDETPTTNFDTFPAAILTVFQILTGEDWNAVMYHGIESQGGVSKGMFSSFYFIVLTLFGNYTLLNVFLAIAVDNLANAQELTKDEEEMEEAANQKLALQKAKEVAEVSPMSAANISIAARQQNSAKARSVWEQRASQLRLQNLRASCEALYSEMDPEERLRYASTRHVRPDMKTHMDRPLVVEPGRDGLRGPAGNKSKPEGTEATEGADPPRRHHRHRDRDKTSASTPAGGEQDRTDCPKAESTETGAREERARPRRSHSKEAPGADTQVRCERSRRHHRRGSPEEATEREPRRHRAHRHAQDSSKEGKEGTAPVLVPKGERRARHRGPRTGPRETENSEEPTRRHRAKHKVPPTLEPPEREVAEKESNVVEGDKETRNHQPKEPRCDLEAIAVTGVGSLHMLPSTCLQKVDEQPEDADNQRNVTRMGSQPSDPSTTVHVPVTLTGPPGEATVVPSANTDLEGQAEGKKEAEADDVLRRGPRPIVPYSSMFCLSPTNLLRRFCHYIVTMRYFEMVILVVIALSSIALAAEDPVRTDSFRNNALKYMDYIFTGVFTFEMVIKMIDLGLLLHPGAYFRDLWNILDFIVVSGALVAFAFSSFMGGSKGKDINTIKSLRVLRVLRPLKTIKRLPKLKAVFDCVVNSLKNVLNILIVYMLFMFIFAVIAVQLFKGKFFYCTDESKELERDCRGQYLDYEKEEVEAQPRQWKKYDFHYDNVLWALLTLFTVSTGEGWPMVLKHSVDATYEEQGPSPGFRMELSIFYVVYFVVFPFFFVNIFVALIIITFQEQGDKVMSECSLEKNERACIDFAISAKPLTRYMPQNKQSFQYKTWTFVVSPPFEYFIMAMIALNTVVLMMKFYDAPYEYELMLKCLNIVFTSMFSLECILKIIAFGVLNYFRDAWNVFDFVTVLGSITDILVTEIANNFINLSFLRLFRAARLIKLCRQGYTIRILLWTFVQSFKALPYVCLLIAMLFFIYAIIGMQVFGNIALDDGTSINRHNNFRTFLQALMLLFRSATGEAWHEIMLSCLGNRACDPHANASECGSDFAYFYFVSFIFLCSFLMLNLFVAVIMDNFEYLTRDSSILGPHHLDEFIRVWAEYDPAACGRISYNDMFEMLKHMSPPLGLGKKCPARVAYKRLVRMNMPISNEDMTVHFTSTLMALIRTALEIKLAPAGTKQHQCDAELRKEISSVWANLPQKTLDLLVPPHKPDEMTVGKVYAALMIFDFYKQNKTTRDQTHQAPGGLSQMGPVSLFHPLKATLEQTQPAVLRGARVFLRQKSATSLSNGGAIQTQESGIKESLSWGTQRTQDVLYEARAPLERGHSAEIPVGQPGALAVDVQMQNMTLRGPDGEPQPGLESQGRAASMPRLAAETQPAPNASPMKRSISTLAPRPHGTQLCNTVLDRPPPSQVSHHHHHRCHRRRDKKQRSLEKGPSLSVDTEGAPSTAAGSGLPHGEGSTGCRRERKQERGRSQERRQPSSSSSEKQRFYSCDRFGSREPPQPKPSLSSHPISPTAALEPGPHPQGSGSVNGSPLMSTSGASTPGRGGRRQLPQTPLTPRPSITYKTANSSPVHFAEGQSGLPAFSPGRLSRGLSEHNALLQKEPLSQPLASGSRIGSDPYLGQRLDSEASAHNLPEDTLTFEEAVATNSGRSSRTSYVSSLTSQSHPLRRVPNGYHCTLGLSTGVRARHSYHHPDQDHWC

As usually defined, the IC50 is the concentration that gives 50% inhibition. Lower therefore signals inhibition by little substance. Regarding `CC[C@H](C)[C@@H]1NC(=O)[C@H](CO)NC(=O)[C@H]([C@@H](C)O)NC(=O)[C@H](C(C)C)NC(=O)CNC(=O)[C@@H]2CSSC[C@@H]3NC(=O)[C@H](CCCNC(=N)N)NC(=O)CNC(=O)[C@H](CSSC[C@H](N)C(=O)N[C@@H](CCCNC(=N)N)C(=O)N[C@@H](CO)C(=O)N[C@@H](CO)C(=O)NCC(=O)N[C@@H](CO)C(=O)N4C[C@H](O)C[C@H]4C(=O)N2)NC(=O)[C@H](CSSC[C@@H](C(=O)N[C@H](C(N)=O)[C@@H](C)O)NC(=O)[C@H](CCCCN)NC(=O)CNC(=O)[C@H](CCCNC(=N)N)NC(=O)[C@H](Cc2ccc(O)cc2)NC3=O)NC1=O` [SNX-157] (H-CRSSGS[Hyp]CGVTSICCGRCYRGKCT-NH2; disulfide 1-15, 8-18, 14-23), the 50% inhibitory concentration (IC50) turned out to be 1460 nM.
